# Data from patent US10390521B2, “Parkinsons disease model and methods” (Boston Medical Center Corporation, priority 2013, dated 2019).
# Legend:
# [1] = test system: store-operated Ca^2+ entry (SOCE); test: Ca^2+ imaging, store-operated Ca^2+ entry in MEFs; assay type: cell-based, mouse; details: MEFs from WT mice
# Method: (§1) MEFs were cultured in glass bottom dishes coated with fibronectin (2.5 μg/cm^2, Sigma, St. Louis, Mo., USA) for 24-48 hours. Intracellular Ca^2+ measurements were done similar to published earlier (57). Briefly, the cells were loaded with fura-2/AM (5 μM) (Invitrogen), and cytosolic Ca^2+ (measured as F340/F380 ratio) was recorded simultaneously in 10-20 individual cells using a dual-excitation fluorescence imaging system (Intracellular Imaging, USA): representative traces show an average (±SEM) for 10-20 cells recorded simultaneously. Ca^2+ changes were calculated as Δ Ratio(F340/F380), which is the difference between the basal and peak values of Ca^2+ responses.
# (§2) The following treatments were used in Ca^2+ studies (FIG. 14): TPEN (N,N,N′,N′-Tetrakis(2-pyridylmethyl)ethylenediamine, Sigma, USA) was applied (400 μM) directly to the cells during recording, 3 min before 2 mM Ca^2+ addition; (S)-BEL ((S)-bromoenol lactone, Cayman, USA) was applied (50 μM for 20 min in serum-free medium at 37° C.) to the cells after their loading with fura-2/AM, and was washed away before the start of experiment; EGTA (2.5 mM) was added to 2 mM Ca^2+-containing bath solution right before ionomycin (IM, 1 μM) application.
# PLA2g6 = PLA2g6 catalytic activity in homogenates of brain or MEFs; assay type: biochemical, mouse; details: no differences between KO^Ex2 and WT
# Method: The activity of PLA2g6 (FIG. 14) was determined using modified PLA2 assay kit (Cayman, USA), as previously described (56, 63). Briefly, after each experimental treatment, MEFs were homogenized using a cold lysis buffer (10 mM Tris-HCl, pH 7.0, 300 mM sucrose, 0.5% Triton X-100). To identify specific activity of Ca^2+-independent PLA2g6, the assay buffers were modified to contain no Ca^2+, and phospholipase activity was assayed by incubating the samples with the substrate, 1-hexadecyl-2-arachidonoylthio-2-deoxy-sn-glycero-3-phosphorylcholine for 1 h at room temperature in a modified Ca^2+-free assay buffer (10 mM HEPES, pH 7.4, 300 mM NaCl, 60% glycerol, 8 mM Triton X-100, 4 mM EGTA, and 2 mg/ml bovine serum albumin). The generated free thiols were visualized by the addition of DTNB (5,5′-dithiobis(2-[…])) for 5 min, and the absorbance was determined at 405 nm using a standard microplate reader. In calculations of specific PLA2g6 activity a value of 10 mM^−1 was used as extinction coefficient for DTNB at 405 nm. Summary data present average (±SEM) from 3 independent experiments for each condition.
# [2] = test system: intracellular Ca^2+ stores; test: Ca^2+ imaging, ionomycin-induced Ca^2+ release from intracellular stores in MEFs; assay type: cell-based, mouse; details: MEFs from KO^Ex2 mice compared to WT; IM 1 μM, extracellular EGTA
# Method: as §1, §2
# KO^Ex2 mice = test: L-DOPA challenge, beam balance test; assay type: in vivo, mouse
# Method: The balance beam test (FIG. 10d) was performed using standard approach (55). […] KO^ex2 and WT males from 8 to 24 month of age were tested. Each mouse was placed on a beam for 2 minutes, and its movement was recorded by video camera. The total travel distance, the number of missteps (paw faults, or slips) during travel were analyzed for each mouse, and data summarized for each group as mean±SEM; the numbers of animals used for each time point is identified on the graphs. L-DOPA challenge test (FIG. 10e) was performed on KO^ex2 and WT littermates mice at 12, 16 and 24 months of age. Control beam balance test was performed in the morning a day before L-DOPA challenge. In the morning of the following day, all mice received a single dose of L-3,4-dihydroxyphenylalanine (L-DOPA) via peritoneal injection. Three different doses (5, 10 and 25 mg/kg, Sigma) were tested on the same groups of animals in separate experiments performed with 2-3 days intervals. During each test 20 minutes before L-DOPA administration, mice were given 6 mg/kg of Benserazide (Sigma) to inhibit peripheral DOPA decarboxylase. Beam balance test was done 1 h after L-DOPA injection, as described above. Video-recorded data for each mouse were analyzed later, and summarized for each group as mean±SEM; the numbers of animals used for these studies is identified on the graphs.
compound,measurement,setting,value
"O=C1O/C(=C/Br)CC[C@H]1c1cccc2ccccc12 [S-BEL, (S)-bromoenol lactone]",effect on TPEN-induced Ca^2+ entry,[1]; S-BEL 50 μM for 20 min pretreatment,S-BEL-sensitive
same,effect on PLA2g6 catalytic activity,PLA2g6,inhibition
C[C@H](CCC(=O)O)C[C@H](C)C[C@H](C)C(=O)/C=C(\O)[C@H](C)C[C@H](C)C/C=C/[C@@H](C)[C@@H](O)[C@@H](C)[C@@H](O)C[C@@H]1CC[C@@](C)([C@H]2CC[C@@](C)([C@@H](C)O)O2)O1 [ionomycin],decrease in the peak of Ca^2+ release caused by ionomycin,[2],60%
"N[C@@H](Cc1ccc(O)c(O)c1)C(=O)O [L-DOPA, L-3,4-dihydroxyphenylalanine]",number of missteps in beam balance test,"KO^Ex2 mice; KO^Ex2 mice at 12, 16 and 24 months, L-DOPA 5-25 mg/kg, dose and age-dependent manner",significantly reduced
same,motor performance (PD-like motor dysfunction),"KO^Ex2 mice; KO^Ex2 mice, L-DOPA 5-25 mg/kg peritoneal injection, Benserazide 6 mg/kg 20 min before, test 1 h after injection",significantly improved
O=C(O)CN(CCOCCOCCN(CC(=O)O)CC(=O)O)CC(=O)O [EGTA],effect on PLA2g6 catalytic activity,PLA2g6,activation
"c1ccc(CN(CCN(Cc2ccccn2)Cc2ccccn2)Cc2ccccn2)nc1 [TPEN, N,N,N′,N′-Tetrakis(2-pyridylmethyl)ethylenediamine]",store-operated Ca^2+ entry,[1]; TPEN 400 μM,activated
